According to patent US20250205191A1, “R(-)-MDMA COMPOSITIONS AND METHODS OF TREATMENT” (EmpathBio, Inc., priority 2023, published 2025):

What was measured:
human 5-HT2B receptor = target: T1, human 5-HT2B receptor (Homo sapiens, UniProt P41595); experiment: 5-HT2B agonism, inositol monophosphate accumulation (HTRF), CHO-K1 recombinant cells; type: cell-based
T1 construct: expressed in transfected cells; host or cells: CHO-K1

[1] = target: T2, human 5-HT2C (edited) receptor (Homo sapiens, UniProt P28335); experiment: 5-HT2C (edited) agonism, inositol monophosphate accumulation (HTRF), CHO-K1 recombinant cells; type: cell-based
T2 sequence (P28335 33-458): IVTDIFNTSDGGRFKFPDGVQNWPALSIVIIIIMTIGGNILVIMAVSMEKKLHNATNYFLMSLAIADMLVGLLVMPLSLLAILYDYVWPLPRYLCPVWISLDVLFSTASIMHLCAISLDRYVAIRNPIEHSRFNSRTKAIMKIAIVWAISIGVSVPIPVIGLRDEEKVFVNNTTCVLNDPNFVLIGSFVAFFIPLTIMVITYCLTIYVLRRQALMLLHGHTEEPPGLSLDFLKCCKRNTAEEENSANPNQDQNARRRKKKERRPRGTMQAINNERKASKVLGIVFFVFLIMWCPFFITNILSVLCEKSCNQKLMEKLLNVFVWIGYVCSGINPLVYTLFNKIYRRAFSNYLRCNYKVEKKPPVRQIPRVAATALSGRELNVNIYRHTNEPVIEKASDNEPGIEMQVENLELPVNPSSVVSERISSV

[2] = system: rat embryonic cortical neurons; experiment: In vitro rat cortical neurite outgrowth; type: cell-based; details: 3 days, vs vehicle control
Procedure: The experiment included a 0.1% sterile water vehicle negative control condition and a 250 nM donepezil positive control condition, and the number of neurites per neuron, total neurite length per neuron and branchpoints per neuron from n=12 wells per treatment were compared to the vehicle control condition.

[3] = Phase 1 clinical study, urine pharmacokinetics (urinalysis); type: in vivo, human
healthy volunteers [4] = experiment: Phase 1 5-Dimensions-Altered States of Consciousness (5D-ASC); type: in vivo, human; details: 75-225 mg oral
Excerpt: The 5D-ASC measures the acute drug effects using 5 primary dimensions and 11 lower-order scales to assess alterations in mood, perception and experience of self in relation to environment and thought disorder. The 5 dimensions include oceanic boundlessness, anxious ego dissolution, visionary restructuralization, auditory alterations, and reduction of vigilance.
A notable result illustrated by the ASC data was the reporting ratio of feelings of Oceanic Boundlessness (OB) relative to Dread of Ego Dissolution (DED). The ratio can be a useful metric as they are inversely correlated with psychedelic-mediated antidepressant efficacy (OB positively correlated, DED negatively correlated). […] The OB-DED ratio was consistent with the 11-Dimensional Altered States of Consciousness (11D-ASC).

healthy volunteers [5] = experiment: Phase 1 Multifaceted Empathy Test (MET); type: in vivo, human; details: 75-225 mg
Excerpt: The Multifaceted Empathy Test (MET) measures cognitive empathy (CE), explicit emotional empathy (EEE) and implicit emotional empathy (IEE).

[6] = Phase 1 clinical study, plasma pharmacokinetics; details: for AUC0-t / Cmax / t1/2: mean (SD); for Tmax: median (minimum, maximum)
[7] = urine analyte after EMP-01 125 mg, Day 9
[8] = urine analyte after single oral 75 mg R(−)-MDMA, Day 1
[9] = urine analyte after single oral 125 mg R(−)-MDMA, Day 1
[10] = urine analyte after single oral 175 mg R(−)-MDMA, Day 1
[11] = urine analyte after single oral 225 mg R(−)-MDMA, Day 1
[12] = plasma analyte after oral 125 mg R(−)-MDMA, Day 9
[13] = plasma analyte after single oral 75 mg R(−)-MDMA, Day 1
[14] = plasma analyte after single oral 125 mg R(−)-MDMA, Day 1
[15] = plasma analyte after single oral 175 mg R(−)-MDMA, Day 1
[16] = plasma analyte after single oral 225 mg R(−)-MDMA, Day 1

T1 sequence (P41595 whole entry): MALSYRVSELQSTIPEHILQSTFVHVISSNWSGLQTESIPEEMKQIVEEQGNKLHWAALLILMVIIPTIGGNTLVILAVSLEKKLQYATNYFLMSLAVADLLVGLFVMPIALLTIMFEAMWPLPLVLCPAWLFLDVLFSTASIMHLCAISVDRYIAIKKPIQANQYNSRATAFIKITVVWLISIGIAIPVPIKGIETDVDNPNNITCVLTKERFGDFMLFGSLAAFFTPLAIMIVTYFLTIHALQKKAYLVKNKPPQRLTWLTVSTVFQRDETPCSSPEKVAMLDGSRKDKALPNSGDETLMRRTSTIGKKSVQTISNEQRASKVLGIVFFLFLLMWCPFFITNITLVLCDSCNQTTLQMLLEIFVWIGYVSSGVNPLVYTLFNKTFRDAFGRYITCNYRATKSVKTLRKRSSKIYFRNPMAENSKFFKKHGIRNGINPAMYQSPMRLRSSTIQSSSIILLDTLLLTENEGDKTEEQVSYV

For `CN[C@H](C)Cc1ccc2c(c1)OCO2` [R(−)-MDMA, R(−)-3,4-methylenedioxymethamphetamine], the agonism in words (human 5-HT2B receptor; 5-HT2B receptors) was “high potency full agonism”, the EC50 (human 5-HT2B receptor; 5-HT2B, CHO-K1, IP accumulation) was 53 nM and the “Efficacy (% of a-Me-5-HT response)” value (human 5-HT2B receptor; 5-HT2B, relative to α-Me-5-HT at its EC100) was 91.8%. The agonism in words ([1]; 5-HT2C (edited) receptors) was “high potency full agonism”, the “Efficacy (% of a-Me-5-HT response)” value ([1]; 5-HT2C (edited), relative to α-Me-5-HT at its EC100) was 96.6% and the “number of neurites per neuron” value ([2]; 0.0001 μM) was “modest yet significant increases”. For the same compound, the branchpoints per neuron ([2]; 10 μM) was “modest yet significant increases”, the “number of neurites per neuron” value ([2]; 10 μM) was “modest yet significant increases” and the “total neurite length per neuron” value ([2]; 10 μM) was “modest yet significant increases”. For the same compound, the detection in urine ([3]; 0-4 hours postdose) was “detected in urine in all participants by the first collection interval”, the “mean cumulative amount excreted in urine (CAe), trend” value ([3]; across dose groups) was “dose-related increase” and the “mean renal clearance (CLr), trend” value ([3]; across dose groups) was “approximately similar across all dose groups”. For the same compound, the “mean urine concentration over collection intervals” value ([3]; all intervals to 30 hours) was “highest in the 12-24 hour collection interval”, the “Ae12-24, amount excreted at the 12-24 hour collection interval” value [3, 7] was 18.5655 (12.7511) mg and the “CAe, cumulative amount of drug excreted” value [3, 7] was 40.5567 (15.5851) mg. For the same compound, the “CFe, cumulative fraction of drug excreted” value (“CFe, cumulative fraction” for short) [3, 7] was 32.4453 (12.4681) %, the “CLr, renal clearance rate” value [3, 7] was 5.2324 (1.8093) L/h and the “Fe12-24, fraction of drug excreted at the 12-24 hour collection interval” value [3, 7] was 14.8524 (10.2009) %. For the same compound, the “Ae12-24, amount excreted at the 12-24 hour collection interval” value [3, 8] was 7.6917 (3.1509) mg, the “CAe, cumulative amount of drug excreted” value [3, 8] was 20.0733 (9.7605) mg and the “CFe, cumulative fraction” value [3, 8] was 26.7643 (13.0140) %. For the same compound, the “CLr, renal clearance rate” value [3, 8] was 4.9966 (1.2255) L/h, the “Fe12-24, fraction of drug excreted at the 12-24 hour collection interval” value [3, 8] was 10.2556 (4.2012) % and the “Ae12-24, amount excreted at the 12-24 hour collection interval” value [3, 9] was 14.5039 (5.6733) mg. The “CAe, cumulative amount of drug excreted” value [3, 9] was 28.2063 (7.8540) mg, the “CFe, cumulative fraction” value [3, 9] was 22.5650 (6.2832) % and the “CLr, renal clearance rate” value [3, 9] was 3.9900 (1.0288) L/h. The “Fe12-24, fraction of drug excreted at the 12-24 hour collection interval” value [3, 9] was 11.6031 (4.5387) %, the “Ae12-24, amount excreted at the 12-24 hour collection interval” value [3, 10] was 20.3702 (13.5536) mg and the “CAe, cumulative amount of drug excreted” value [3, 10] was 59.6271 (34.2201) mg. For the same compound, the “CFe, cumulative fraction” value [3, 10] was 34.0726 (19.5543) %, the “CLr, renal clearance rate” value [3, 10] was 5.9108 (2.5782) L/h and the “Fe12-24, fraction of drug excreted at the 12-24 hour collection interval” value [3, 10] was 11.6401 (7.7449) %. For the same compound, the “Ae12-24, amount excreted at the 12-24 hour collection interval” value [3, 11] was 36.8357 (16.8611) mg, the “CAe, cumulative amount of drug excreted” value [3, 11] was 76.0465 (15.1167) mg and the “CFe, cumulative fraction” value [3, 11] was 33.7985 (6.7186) %. The “CLr, renal clearance rate” value [3, 11] was 5.5411 (1.6424) L/h, the “Fe12-24, fraction of drug excreted at the 12-24 hour collection interval” value [3, 11] was 16.3714 (7.4938) % and the “5D-ASC sub-components and total score” value (healthy volunteers [4]) was “dose-dependent increase in all measured sub-components and in the total score”. For the same compound, the “MET LSmean scores in CE negative emotions, changes from baseline” value (healthy volunteers [5]) was “dose-dependent manner”, the food effect ([6]; 125 mg fasted vs fed) was “No food effect” and the “mean plasma concentration at final PK assessments” value ([6]; 30 hours postdose) was “remained above the lower limit of quantitation”. The AUC0-t [6, 12] was 7229.6028 (1863.6711) h · ng/mL, the Cmax [6, 12] was 455.4850 (65.0461) ng/mL and the t1/2 [6, 12] was 13.3444 (3.5309) hr. For the same compound, the Tmax [6, 12] was 2.758 (2.08, 4.02) hr, the AUC0-t [6, 13] was 3976.7452 (1350.4178) h · ng/mL and the Cmax [6, 13] was 275.8217 (90.7390) ng/mL. For the same compound, the t1/2 [6, 13] was 9.2622 (2.5227) hr, the Tmax [6, 13] was 3.000 (2.02, 3.00) hr and the AUC0-t [6, 14] was 7135.8809 (1245.2963) h · ng/mL. For the same compound, the Cmax [6, 14] was 425.2550 (62.4569) ng/mL, the t1/2 [6, 14] was 11.8615 (1.9947) hr and the Tmax [6, 14] was 3.517 (1.50, 4.02) hr. For the same compound, the AUC0-t [6, 15] was 10007.8882 (2324.8851) h · ng/mL, the Cmax [6, 15] was 617.3440 (158.9596) ng/mL and the t1/2 [6, 15] was 12.2009 (1.4988) hr. For the same compound, the Tmax [6, 15] was 4.000 (3.00, 6.02) hr, the AUC0-t [6, 16] was 14453.1811 (3684.7488) h · ng/mL and the Cmax [6, 16] was 828.6450 (213.1377) ng/mL. The t1/2 [6, 16] was 14.0772 (3.2340) hr and the Tmax [6, 16] was 5.000 (3.00, 6.02) hr.
